# Measured values as given in patent US20110054033A1, “METHODS OF USING ABSCISIC ACID FOR AMELIORATING HYPERTENSION AND VASCULAR INFLAMMATION” (Virginia Tech Intellectual Properties, Inc., priority 2009, published 2011).
# Legend:
# [1] = system: ApoE-deficient mice; assay: Blood pressure by non-invasive tail-cuff system; assay type: in vivo; settings: for Systolic blood pressure vs control-fed mice: P<0.05
# Experimental: FIG. 3 is a graph showing that ABA decreases systolic blood pressure in ApoE (−/−) mice. ApoE −/− mice were fed high fat diets created with (solid line) or without (dashed line) 100 mg/kg diet racemic abscisic acid (ABA). Systolic blood pressure was assessed on days 0, 28, 56, and 72 of dietary treatment. Data were analyzed as a completely randomized design.
# Five-week old ApoE −/− mice (n=40) were housed at the animal facilities at Virginia Polytechnic Institute and State University in a room maintained at 75° F., with a 12:12 h light-dark cycle starting from 6:00 AM. All experimental procedures were approved by the Institutional Animal Care and Use Committee of Virginia Polytechnic Institute and State University and met or exceeded requirements of the Public Health Service/National Institutes of Health and the Animal Welfare Act. Mice were fed a high saturated fat (AIN-93G-based) diet containing 19.6% fat and 0.2% total cholesterol and obtaining 40.1% of Kcal from fat (4.4 Kcal/g) with or without 100 mg/kg of a racemic ABA mixture (Guri et al., J. Nutr. Biochem. 19:216-28, 2008). Systolic blood pressure was assessed on days 0, 28, 56, and 72. On day 84, fasted mice (12 h) were sacrificed by carbon dioxide asphyxiation and blood was withdrawn through cardiac puncture. Glucose concentrations of whole blood were assessed with an Accu-Chek® Glucometer (Roche, Indianapolis, Ind.) and plasma insulin was measured through insulin ELISA (Millipore, Billerica, Mass.). Aortas were collected for analysis of immune cell infiltration, histological evaluation of atherosclerotic lesions, and gene expression analyses.
# Systolic blood pressure was measured with a computerized non-invasive tail-cuff system (CODA 2 mouse rat blood pressure system; Kent Scientific Corporation, Torrington, Conn.). Conscious animals were kept in a restrainer, with a standard acclimatization time of 10 min and gentle heating of the tail before every recording session. Fifteen recordings, which were preceded by five acclimitization recordings, were performed on each animal during each timepoint.
# [2] = system: human aorta endothelial cells (HAECs); assay: Nitric oxide in HAEC culture supernatants; assay type: cell-based; settings: 0.001-10 μM ABA
# Experimental: FIG. 7 are graphs showing effect of ABA on (A) cAMP; (B) NO; and (C) eNOS. (A) Confluent human aortic endothelial cell (HAEC) were serum-starved using HBSS buffer for 30 min and then stimulated with various concentrations of ABA (0, 0.01, 0.1, 1, 10 μM) or Forskolin (1 μM) for […]. After removing supernatant, cells were lysated with 0.1 M HCL for 20 minutes to measure non-acetylated cAMP. (B) Confluent HAEC were serum-starved using HBSS buffer for 30 minutes and then stimulated with various concentrations of ABA (0, 0.001, 0.01, 0.1, 1, 10 μM) for 15 minutes to measure NO. Results (pmol/ml) from four independent experiments are depicted. […]
# Confluent human aorta endothelial cells (HAECs) at passage 3 maintained with EGM-2 media (Clonetics, Walkerville, Md.) were adapted to Hank's buffered salt solution buffer for 30 min and then stimulated with ABA or forskolin (1 μM) for 10 min. For intracellular assessment of cAMP, the cells were harvested into 0.1 M HCL and the lysates were obtained by sonication and centrifugation. cAMP the lysates were determined by using an EIA kit (Assay Designs, Ann Arbor, Mich.) and results were obtained from four independent experiments. Nitric oxide levels in the cell culture supernatants were determined with the Nitric Oxide Assay Kit according to manufacturer's instructions (Assay Designs). […]
# [3] = ABA 100 mg/kg diet, data not shown
smiles,measurement,setting,value
"CC1=CC(=O)CC(C)(C)C1(O)/C=C/C(C)=C\C(=O)O (racemic) [ABA, abscisic acid]",Diastolic blood pressure vs control-fed mice,[1]; [3],no significant affect
same,Mean heart rate vs control-fed mice,[1]; [3],no significant affect
same,Systolic blood pressure vs control-fed mice,"[1]; day 56, ABA 100 mg/kg diet",significantly reduced
same,Systolic blood pressure vs control-fed mice,"[1]; day 72, ABA 100 mg/kg diet",significantly reduced
same,NO production,[2],enhanced NO production
